Experimental findings from patent publication US20260232682A1, “GSPT1 DEGRADER COMPOUNDS” (Captor Therapeutics S.A., priority 2023, published 2026) are described below.

Each structure is given as a SMILES string. Bounds are passed on as bounds.

The target of test [1] is T1, [SALL4 ZF2]-[compound]-[CRBN/DDB1] ternary complex (Homo sapiens, UniProt Q96SW2+Q9UJQ4).
T1 construct: SALL4 ZF2
The test can be described thus: AlphaLISA assay for off-target recruitment detection, SALL4 ZF2. Particulars: 1 μM compound; normalized to Lenalidomide; read-out: Normalized ternary complex response, SALL4 ZF2. Format: binding. In short, it runs like this: (§1)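 Neo-substrate with 40 μg/ml donor beads and 200 nM 6×His-CRBN/DDB1 with 40 μg/ml anti-His acceptor beads were each prepared in PBS pH 7.4 with Tween-20 and 1 mM DTT, preincubated 30 min at RT, then mixed. Compounds at 2% DMSO were incubated 30 min at 25 °C, read at 680/615 nm, and normalised between DMSO background and reference glue maximum.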
Background: Bead proximity is the source of the signal in Alpha formats.

Test [2] deals with T2, [IKZF1 ZF2]-[compound]-[CRBN/DDB1] ternary complex (Homo sapiens, UniProt Q13422+Q96SW2).
T2 construct: IKZF1 ZF2
The test can be described thus: AlphaLISA assay for off-target recruitment detection, IKZF1 ZF2. Format: binding. Particulars: 1 μM compound; normalized to Lenalidomide; read-out: Normalized ternary complex response, IKZF1 ZF2. A digest of the protocol:
as §1

Test [3] addresses T3, [IKZF2 ZF2]-[compound]-[CRBN/DDB1] ternary complex (Homo sapiens, UniProt Q96SW2+Q9UKS7).
T3 construct: IKZF2 ZF2
As to the kind of experiment: AlphaLISA assay for off-target recruitment detection, IKZF2 ZF2. It is filed as binding. Particulars: 1 μM compound; normalized to Helios modulator; read-out: Normalized ternary complex response, IKZF2 ZF2. A digest of the protocol:
as §1

For test [4], the target named is [CK1α]-[compound]-[CRBN/DDB1] ternary complex (Homo sapiens, UniProt P48729+Q96SW2). As to the kind of experiment: AlphaLISA assay for off-target recruitment detection, CK1α. Format: binding. Particulars: 1 μM compound; normalized to FPFT-2216; read-out: Normalized ternary complex response, CK1α. In short, it runs like this:
as §1

Another test has as its system GSPT1-HiBiT HEK293 cells. As to the kind of experiment: Cell Viability-CTG assay accompanying the Nano-Glo HiBiT assay. It is filed as cell-based. Conditions: 6 hours treatment, viability of GSPT1-HiBiT HEK293 cells. The protocol: In parallel, the Cell Viability-CTG assay was performed to ensure that the potential decrease of the luminescent signal observed in the Nano-Glo HiBiT assay is a result of protein degradation and not a result of decreasing cell viability. For CTG assay accompanying the Nano-Glo HiBiT assay, cells were cultured, seeded and treated as described above. After 6 hours of incubation (37° C., 5% CO2), plates were removed from the incubator and let to equilibrate to RT. Luminescent signal detection was conducted using the CellTiter-Glo Lumiescent Cell Viability Assay (Promega, cat. nr G7573). 10 μL of the Cell Titer Glo reagent was added per well, plates were shaken to facilitate lysis (460 rpm, 4 min, RT) and incubated in the dark for the following 8 min. Luminescence was read using the CLARIOstar multimode plate reader (BMG LABTECH). The raw data (the relative luminescence unit values, RLU) were uploaded under the relevant protocol and analysed in CDDVault data management platform, in a manner similar to the description above. The Mean Minimum values were calculated in CDDVault using non-linear regression and appropriate equations.
In general terms: The HiBiT peptide binds its large partner to form an active luciferase.

T3 sequence (Q9UKS7 140-162 limits assumed): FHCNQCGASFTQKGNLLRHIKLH
T3 sequence (Q96SW2 whole entry): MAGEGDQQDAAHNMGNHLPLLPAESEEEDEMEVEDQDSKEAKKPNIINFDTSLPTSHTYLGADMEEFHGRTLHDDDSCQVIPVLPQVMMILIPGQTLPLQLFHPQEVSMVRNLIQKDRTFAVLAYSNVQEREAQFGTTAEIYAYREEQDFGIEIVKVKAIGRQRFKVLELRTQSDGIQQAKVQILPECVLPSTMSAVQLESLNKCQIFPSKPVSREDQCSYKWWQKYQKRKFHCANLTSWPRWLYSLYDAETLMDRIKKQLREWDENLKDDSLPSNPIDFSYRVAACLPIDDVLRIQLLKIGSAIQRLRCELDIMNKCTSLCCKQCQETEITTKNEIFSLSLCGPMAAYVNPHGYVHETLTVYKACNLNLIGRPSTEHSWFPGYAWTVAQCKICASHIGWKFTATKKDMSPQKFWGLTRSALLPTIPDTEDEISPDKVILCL
T3 sequence (Q16531 whole entry partner): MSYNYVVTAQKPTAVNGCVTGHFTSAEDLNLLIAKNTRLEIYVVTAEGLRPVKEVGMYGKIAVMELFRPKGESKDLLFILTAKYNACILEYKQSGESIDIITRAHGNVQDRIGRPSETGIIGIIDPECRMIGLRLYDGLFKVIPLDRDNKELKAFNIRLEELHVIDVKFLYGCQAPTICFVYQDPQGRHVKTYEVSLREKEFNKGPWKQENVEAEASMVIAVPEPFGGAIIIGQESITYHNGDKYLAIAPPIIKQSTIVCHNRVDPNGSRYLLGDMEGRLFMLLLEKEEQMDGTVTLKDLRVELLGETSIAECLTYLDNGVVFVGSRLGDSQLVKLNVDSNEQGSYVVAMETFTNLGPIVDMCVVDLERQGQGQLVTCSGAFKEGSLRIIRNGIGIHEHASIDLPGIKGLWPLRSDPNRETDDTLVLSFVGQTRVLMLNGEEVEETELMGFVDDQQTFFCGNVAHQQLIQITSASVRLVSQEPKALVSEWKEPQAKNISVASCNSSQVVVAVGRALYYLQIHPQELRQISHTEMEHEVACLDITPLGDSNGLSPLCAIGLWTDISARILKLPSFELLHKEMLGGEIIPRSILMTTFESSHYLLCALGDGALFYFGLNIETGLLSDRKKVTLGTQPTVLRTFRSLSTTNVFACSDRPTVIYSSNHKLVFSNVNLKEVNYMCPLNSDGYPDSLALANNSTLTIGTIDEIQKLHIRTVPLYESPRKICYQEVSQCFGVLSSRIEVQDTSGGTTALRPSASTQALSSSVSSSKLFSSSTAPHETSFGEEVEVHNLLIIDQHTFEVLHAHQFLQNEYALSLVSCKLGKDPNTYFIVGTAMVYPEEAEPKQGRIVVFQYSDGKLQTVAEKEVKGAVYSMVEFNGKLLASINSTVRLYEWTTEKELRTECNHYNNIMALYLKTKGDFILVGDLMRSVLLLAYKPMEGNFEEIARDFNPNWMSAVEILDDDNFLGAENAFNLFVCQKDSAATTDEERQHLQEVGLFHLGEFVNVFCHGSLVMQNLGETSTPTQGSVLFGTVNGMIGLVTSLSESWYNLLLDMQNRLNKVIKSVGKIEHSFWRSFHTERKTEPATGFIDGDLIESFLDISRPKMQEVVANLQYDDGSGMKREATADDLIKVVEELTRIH
T1 sequence (Q9UJQ4 410-432 limits assumed): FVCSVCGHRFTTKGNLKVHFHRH
T1 sequence (Q96SW2 whole entry): as the sequence (Q96SW2 whole entry) above
T1 sequence (Q16531 whole entry partner): as the sequence (Q16531 whole entry partner) above
T2 sequence (Q13422 145-167 limits assumed): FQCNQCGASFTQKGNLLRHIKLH
T2 sequence (Q96SW2 whole entry): as the sequence (Q96SW2 whole entry) above
T2 sequence (Q16531 whole entry partner): as the sequence (Q16531 whole entry partner) above
[CK1α]-[compound]-[CRBN/DDB1] ternary complex, sequence (P48729 whole entry): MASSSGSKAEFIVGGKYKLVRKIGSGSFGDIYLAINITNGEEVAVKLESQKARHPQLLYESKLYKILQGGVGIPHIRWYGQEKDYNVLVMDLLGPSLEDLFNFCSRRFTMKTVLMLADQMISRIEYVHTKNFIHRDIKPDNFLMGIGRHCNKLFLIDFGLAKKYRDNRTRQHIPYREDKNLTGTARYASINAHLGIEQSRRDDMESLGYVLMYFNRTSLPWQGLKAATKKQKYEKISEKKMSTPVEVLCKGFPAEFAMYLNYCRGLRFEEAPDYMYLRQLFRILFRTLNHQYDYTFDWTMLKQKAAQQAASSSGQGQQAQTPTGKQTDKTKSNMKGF
[CK1α]-[compound]-[CRBN/DDB1] ternary complex, sequence (Q96SW2 whole entry): as the sequence (Q96SW2 whole entry) above
[CK1α]-[compound]-[CRBN/DDB1] ternary complex, sequence (Q16531 whole entry partner): as the sequence (Q16531 whole entry partner) above

Consider `Cc1nc2cc(COC(=O)Nc3cc(C(F)(F)F)no3)ccc2cc1C1CCC(=O)NC1=O` (stereo not drawn) [Compound 71, (3-(2,6-dioxopiperidin-3-yl)-2-methylquinolin-7-yl)methyl (3-(trifluoromethyl)isoxazol-5-yl)carbamate], for which the activation at 1 µM in test [1], in test [2], in test [3] and in test [4] was less than 10% each time. In the test on GSPT1-HiBiT HEK293 cells, the “CTG assay Mean minimum” value is “++++ (++++≥75% of viability of the HiBiT-GSPT1 HEK293 cells)”.

With `COc1ccc(NC(=O)OCc2ccc3cc(C4CCC(=O)NC4=O)c(C)nc3c2)nn1` (stereo not drawn) [Compound 45, (3-(2,6-dioxopiperidin-3-yl)-2-methylquinolin-7-yl)methyl (6-methoxypyridazin-3-yl)carbamate], the activation at 1 µM in test [1], in test [2], in test [3] and in test [4] was less than 10% in each case. The “CTG assay Mean minimum” value with GSPT1-HiBiT HEK293 cells is “++++ (++++≥75% of viability of the HiBiT-GSPT1 HEK293 cells)”.

For the compound `Cc1nc2cc(COC(=O)Nc3cc(C4(C(F)(F)F)CC4)no3)ccc2cc1C1CCC(=O)NC1=O` (stereo not drawn) [Compound 81, (3-(2,6-dioxopiperidin-3-yl)-2-methylquinolin-7-yl)methyl (3-(1-(trifluoromethyl)cyclopropyl)isoxazol-5-yl)carbamate], the activation at 1 µM in test [1], in test [2], in test [3] and in test [4] was less than 10% throughout. In addition, in the test on GSPT1-HiBiT HEK293 cells, the “CTG assay Mean minimum” value is listed as “++++ (++++≥75% of viability of the HiBiT-GSPT1 HEK293 cells)”.

On to `Cc1nc2cc(COC(=O)Nc3cccc(OC(F)(F)F)c3)ccc2cc1C1CCC(=O)NC1=O` (stereo not drawn) [Compound 19, (3-(2,6-dioxopiperidin-3-yl)-2-methylquinolin-7-yl)methyl (3-(trifluoromethoxy)phenyl)carbamate], for which the activation at 1 µM in test [1], in test [2], in test [3] and in test [4] was less than 10% each time. For the same compound, the “CTG assay Mean minimum” value with GSPT1-HiBiT HEK293 cells is on record as “++++ (++++≥75% of viability of the HiBiT-GSPT1 HEK293 cells)”.

As for `Cc1nc2cc(COC(=O)Nc3csc(-c4ccccc4)c3)ccc2cc1C1CCC(=O)NC1=O` (stereo not drawn) [Compound 37, (3-(2,6-dioxopiperidin-3-yl)-2-methylquinolin-7-yl)methyl (5-phenylthiophen-3-yl)carbamate], the activation at 1 µM in test [1], in test [2], in test [3] and in test [4] was less than 10% in each case. In addition, the “CTG assay Mean minimum” value with GSPT1-HiBiT HEK293 cells is reported as “++++ (++++≥75% of viability of the HiBiT-GSPT1 HEK293 cells)”.

For `Cc1ccc(NC(=O)OCc2cc(F)c3cc(C4CCC(=O)NC4=O)c(C)nc3c2)cc1Cl` (stereo not drawn) [Compound 22, (3-(2,6-dioxopiperidin-3-yl)-5-fluoro-2-methylquinolin-7-yl)methyl (3-chloro-4-methylphenyl)carbamate], the activation at 1 µM in test [1], in test [2], in test [3] and in test [4] was less than 10% each time. Further, in the test on GSPT1-HiBiT HEK293 cells, the “CTG assay Mean minimum” value is on record as “++++ (++++≥75% of viability of the HiBiT-GSPT1 HEK293 cells)”.

As to `Cc1nc2cc(COC(=O)NC3CCC(C(C)(C)C)CC3)ccc2cc1C1CCC(=O)NC1=O` (stereo not drawn) [Compound 55, (3-(2,6-dioxopiperidin-3-yl)-2-methylquinolin-7-yl)methyl (4-(tert-butyl)cyclohexyl)carbamate], the activation at 1 µM in test [1], in test [2], in test [3] and in test [4] was less than 10% in each case. Further, the “CTG assay Mean minimum” value with GSPT1-HiBiT HEK293 cells is on record as “++++ (++++≥75% of viability of the HiBiT-GSPT1 HEK293 cells)”.

Consider `Cc1nc2cc(COC(=O)Nc3ccc4c(c3)OCO4)ccc2cc1C1CCC(=O)NC1=O` (stereo not drawn) [Compound 14, (3-(2,6-dioxopiperidin-3-yl)-2-methylquinolin-7-yl)methyl benzo[d][1,3]dioxol-5-ylcarbamate], for which the activation at 1 µM in test [1], in test [2], in test [3] and in test [4] was less than 10% each time. Also, the “CTG assay Mean minimum” value in the test with GSPT1-HiBiT HEK293 cells was “++++ (++++≥75% of viability of the HiBiT-GSPT1 HEK293 cells)”.

Take `Cc1nc2cc(COC(=O)Nc3cc(C(C)(C)C)on3)ccc2cc1C1CCC(=O)NC1=O` (stereo not drawn) [Compound 70, (3-(2,6-dioxopiperidin-3-yl)-2-methylquinolin-7-yl)methyl (5-(tert-butyl)isoxazol-3-yl)carbamate]: the activation at 1 µM in test [1], in test [2], in test [3] and in test [4] was less than 10% in each case. For the same compound, the “CTG assay Mean minimum” value with GSPT1-HiBiT HEK293 cells was “++++ (++++≥75% of viability of the HiBiT-GSPT1 HEK293 cells)”.

Consider `Cc1nc2ccc(CNC(=O)Nc3cc(C(C)(C)C)no3)cc2cc1N1CCC(=O)NC1=O` [Compound 67, 1-(3-(tert-butyl)isoxazol-5-yl)-3-((3-(2,4-dioxotetrahydropyrimidin-1(2H)-yl)-2-methylquinolin-6-yl)methyl)urea], for which the activation at 1 µM in test [1] was 25 to 50%; in test [2], not below 50%; in test [3], 25 to 50%; in test [4] it was 10 to 25%. Also, the “CTG assay Mean minimum” value in the test with GSPT1-HiBiT HEK293 cells is recorded as “++++ (++++≥75% of viability of the HiBiT-GSPT1 HEK293 cells)”.

Take `Cc1ccc(NC(=O)OCc2ccc3cc(C4CCC(=O)NC4=O)c(C)nc3c2)cc1Cl` (stereo not drawn) [Compound 4, (3-(2,6-dioxopiperidin-3-yl)-2-methylquinolin-7-yl)methyl (3-chloro-4-methylphenyl)carbamate]: the activation at 1 µM in test [1], in test [2], in test [3] and in test [4] was less than 10% in each case. The “CTG assay Mean minimum” value in the test on GSPT1-HiBiT HEK293 cells is given as “++++ (++++≥75% of viability of the HiBiT-GSPT1 HEK293 cells)”.

On to `COc1cnc(NC(=O)OCc2ccc3cc(C4CCC(=O)NC4=O)c(C)nc3c2)cn1` (stereo not drawn) [Compound 59, (3-(2,6-dioxopiperidin-3-yl)-2-methylquinolin-7-yl)methyl (5-methoxypyrazin-2-yl)carbamate], for which the activation at 1 µM in test [1], in test [2], in test [3] and in test [4] was less than 10% throughout. Also, the “CTG assay Mean minimum” value in the test on GSPT1-HiBiT HEK293 cells was “++++ (++++≥75% of viability of the HiBiT-GSPT1 HEK293 cells)”.

For the compound `Cc1nc2cc(COC(=O)Nc3cc(C(F)(F)F)n[nH]3)ccc2cc1C1CCC(=O)NC1=O` (stereo not drawn) [Compound 69, (3-(2,6-dioxopiperidin-3-yl)-2-methylquinolin-7-yl)methyl (3-(trifluoromethyl)-1H-pyrazol-5-yl)carbamate], the activation at 1 µM in test [1], in test [2], in test [3] and in test [4] was less than 10% throughout. Also, the “CTG assay Mean minimum” value in the test on GSPT1-HiBiT HEK293 cells is given as “++++ (++++≥75% of viability of the HiBiT-GSPT1 HEK293 cells)”.

As for `Cc1nc2cc(COC(=O)Nc3nc(C(C)(C)C)no3)ccc2cc1C1CCC(=O)NC1=O` (stereo not drawn) [Compound 80, (3-(2,6-dioxopiperidin-3-yl)-2-methylquinolin-7-yl)methyl (3-(tert-butyl)-1,2,4-oxadiazol-5-yl)carbamate], the activation at 1 µM in test [1], in test [2], in test [3] and in test [4] was less than 10% throughout. Besides, the “CTG assay Mean minimum” value with GSPT1-HiBiT HEK293 cells is on record as “++++ (++++≥75% of viability of the HiBiT-GSPT1 HEK293 cells)”.

For `Cc1ccc(NC(=O)OCc2cc3nc(C)c(C4CCC(=O)NC4=O)cc3cc2F)cc1Cl` (stereo not drawn) [Compound 49, (3-(2,6-dioxopiperidin-3-yl)-6-fluoro-2-methylquinolin-7-yl)methyl (3-chloro-4-methylphenyl)carbamate], the activation at 1 µM in test [1], in test [2], in test [3] and in test [4] was less than 10% throughout. Moreover, the “CTG assay Mean minimum” value in the test on GSPT1-HiBiT HEK293 cells is on record as “++++ (++++≥75% of viability of the HiBiT-GSPT1 HEK293 cells)”.
